In paper PMC5242521 (PLoS ONE, 2017):
Where “and” joins values, the source holds several entries; their conditions need not be identical. Identical values can stand only once.

Legend:
OCT1 [1] = target: T1, OCT1 (Homo sapiens, UniProt O15245); test: OCT1 activity: DAPI accumulation in HEK-OCT1 cells; details: for effect on OCT1 activity: pyrethroid 100 μM, DAPI; for inhibition at 100 μM: human
T1 sequence (O15245 1-554): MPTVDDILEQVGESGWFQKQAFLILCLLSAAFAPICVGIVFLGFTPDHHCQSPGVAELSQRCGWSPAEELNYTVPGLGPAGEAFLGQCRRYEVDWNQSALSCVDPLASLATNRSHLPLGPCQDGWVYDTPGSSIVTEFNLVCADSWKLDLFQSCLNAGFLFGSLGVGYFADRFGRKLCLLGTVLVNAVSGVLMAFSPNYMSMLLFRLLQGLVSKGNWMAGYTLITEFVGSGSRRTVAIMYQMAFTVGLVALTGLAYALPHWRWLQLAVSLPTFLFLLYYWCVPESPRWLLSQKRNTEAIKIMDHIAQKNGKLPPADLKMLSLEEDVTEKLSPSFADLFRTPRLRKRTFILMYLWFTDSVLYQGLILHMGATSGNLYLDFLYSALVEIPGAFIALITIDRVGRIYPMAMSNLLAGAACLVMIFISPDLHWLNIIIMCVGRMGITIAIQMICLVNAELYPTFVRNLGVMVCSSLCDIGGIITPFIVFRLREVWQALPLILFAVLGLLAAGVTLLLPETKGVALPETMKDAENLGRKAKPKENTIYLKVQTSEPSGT
Procedure: (§1) The effects of pyrethroids on activity of ABC and SLC transporters were determined through measuring cellular accumulation or retention of fluorescent or radiolabeled reference substrates for transporters, in the presence or absence of reference inhibitors, as previously described. The nature of cells and reference substrates and inhibitors used for transport assays are summarized in S3 Table.
(§2) The nature of substrates and reference inhibitors and the incubation times with substrates, that varied according to the transporter, were selected in agreement with previous studies and are indicated in S3 Table. The total incubation volume with substrates was 200 μL/well. […] An aliquot of cell lysate (5 μL) was then taken for determining cellular protein content by the Bradford method.
(§3) Intracellular concentrations of reference substrates were initially expressed as fluorescence arbitrary units (for fluorescent dye substrates) or as moles (for radiolabeled substrates) and normalized to cellular protein content, determined by the Bradford method. They were finally used for calculating percentage of transporter activity, according to the following equations [41, 45]: %ABCtransporter activity=([Substrateref inh]-[Substratepyrethroid])×100/([Substrateref inh]-[Substratecontrol]) (1) %SLC transporter activity=([Substratepyrethroid]-[Substratref inh])×100/([Substratecontrol]-[Substrateref inh]) (2) with [Substratepyrethroid] = cellular concentration of reference substrate in the presence of pyrethroid, [Substrateref inh] = cellular concentration of reference substrate in the presence of reference inhibitor and [Substratecontrol] = cellular concentration of reference substrate in control cells not exposed to pyrethroid or reference inhibitor.
(§4) The initial tested concentration of pyrethroids was 100 μM. […] Such concentrations were calculated using GraphPad Prism software (GraphPad Software, La Jolla, CA), through nonlinear regression based on the four parameter logistic function using the following equations: […]

[2] = set-up: method as in PMID 12708229; details: human subjects environmentally exposed; ref [70]; cited from earlier work
P-gp [3] = target: P-gp (Homo sapiens, UniProt P08183); test: P-gp activity: rhodamine 123 accumulation in MCF7R cells; details: pyrethroid 100 μM
Procedure: as §1
(§5) For accumulation assays (performed for all transporters, excepted BCRP), transporter-expressing cells usually cultured in 48-well plates were first incubated at 37°C with reference substrates in the absence (control) or presence of pyrethroids or reference inhibitors, in a well-defined transport assay medium, consisting of 136 mM NaCl, 5.3 mM KCl, 1.1mM KH2PO4, 0.8 mM MgSO4, 1.8 mM CaCl2, 10 mM HEPES, 11 mM D-glucose and adjusted to pH = 7.4 (excepted for MATE transporter assays, for which pH was set to 8.4). The nature of substrates and reference inhibitors and the incubation times with substrates, that varied according to the transporter, were selected in agreement with previous studies and are indicated in S3 Table. The total incubation volume with substrates was 200 μL/well. After washing twice in phosphate-buffered saline (PBS) (200 μL/well/washing), cells were lysed in distilled water (155 μL/well). An aliquot of cell lysate (5 μL) was then taken for determining cellular protein content by the Bradford method. The rest of lysate (150 μL/well) was used for measuring intracellular accumulation of reference substrates by scintillation counting or spectrofluorimetry using a SpectraMax Gemini SX spectrofluorometer (Molecular Devices, Sunnyvale, CA, USA) (excitation and emission wavelengths were 485 and 535 nm, respectively, for rhodamine 123 and fluorescein, and 355 and 460 nm, respectively, for DAPI).
as §3, §4

OAT3 = target: T2, OAT3 (Homo sapiens, UniProt Q8TCC7); test: OAT3 activity: fluorescein accumulation in HEK-OAT3 cells; details: human, pH 7.4
T2 sequence (Q8TCC7 1-542): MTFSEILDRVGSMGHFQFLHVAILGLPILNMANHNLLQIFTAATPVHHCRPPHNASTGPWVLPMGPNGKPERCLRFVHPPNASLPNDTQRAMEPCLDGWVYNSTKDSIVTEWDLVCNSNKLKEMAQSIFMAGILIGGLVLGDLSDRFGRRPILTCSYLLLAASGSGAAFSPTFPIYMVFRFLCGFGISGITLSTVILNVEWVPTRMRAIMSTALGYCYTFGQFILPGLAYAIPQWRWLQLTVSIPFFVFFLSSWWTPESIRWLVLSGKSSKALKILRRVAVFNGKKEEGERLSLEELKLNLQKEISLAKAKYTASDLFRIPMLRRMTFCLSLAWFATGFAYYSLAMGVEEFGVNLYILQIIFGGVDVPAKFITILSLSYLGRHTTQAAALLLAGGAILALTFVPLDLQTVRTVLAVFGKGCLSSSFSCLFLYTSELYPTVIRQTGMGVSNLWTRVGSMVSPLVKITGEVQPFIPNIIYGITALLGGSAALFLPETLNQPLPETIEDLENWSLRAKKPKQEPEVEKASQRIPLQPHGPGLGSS
Procedure: as §1, §5, §3, §4

OCT2 = target: T3, OCT2 (Homo sapiens, UniProt O15244); test: OCT2 activity: rhodamine 123 accumulation in HEK-OCT2 cells; details: human
T3 sequence (O15244 1-555): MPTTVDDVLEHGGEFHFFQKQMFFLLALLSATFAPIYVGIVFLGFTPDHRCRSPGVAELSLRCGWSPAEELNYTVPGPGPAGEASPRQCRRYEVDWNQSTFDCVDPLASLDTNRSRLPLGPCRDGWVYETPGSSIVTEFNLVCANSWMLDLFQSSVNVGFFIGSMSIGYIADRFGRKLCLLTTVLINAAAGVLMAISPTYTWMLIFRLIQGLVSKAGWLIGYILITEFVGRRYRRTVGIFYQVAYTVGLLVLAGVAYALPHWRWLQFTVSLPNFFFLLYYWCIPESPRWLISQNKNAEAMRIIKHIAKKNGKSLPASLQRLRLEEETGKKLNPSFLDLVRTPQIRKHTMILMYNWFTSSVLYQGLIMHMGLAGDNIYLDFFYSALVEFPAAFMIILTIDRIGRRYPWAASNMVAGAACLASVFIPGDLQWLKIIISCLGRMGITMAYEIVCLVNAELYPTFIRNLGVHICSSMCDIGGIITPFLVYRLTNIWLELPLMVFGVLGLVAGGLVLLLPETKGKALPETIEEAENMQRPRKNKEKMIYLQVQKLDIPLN
Procedure: as §1, §2, §3, §4

OAT1 = target: T4, OAT1 (Homo sapiens, UniProt Q4U2R8); test: OAT1 activity: fluorescein accumulation in HEK-OAT1 cells; format: cell-based; details: human, pH 7.4; pyrethroid 100 μM; HEK-OAT1 cells, fluorescein
T4 construct: host or cells: HEK293
T4 sequence (Q4U2R8 1-563): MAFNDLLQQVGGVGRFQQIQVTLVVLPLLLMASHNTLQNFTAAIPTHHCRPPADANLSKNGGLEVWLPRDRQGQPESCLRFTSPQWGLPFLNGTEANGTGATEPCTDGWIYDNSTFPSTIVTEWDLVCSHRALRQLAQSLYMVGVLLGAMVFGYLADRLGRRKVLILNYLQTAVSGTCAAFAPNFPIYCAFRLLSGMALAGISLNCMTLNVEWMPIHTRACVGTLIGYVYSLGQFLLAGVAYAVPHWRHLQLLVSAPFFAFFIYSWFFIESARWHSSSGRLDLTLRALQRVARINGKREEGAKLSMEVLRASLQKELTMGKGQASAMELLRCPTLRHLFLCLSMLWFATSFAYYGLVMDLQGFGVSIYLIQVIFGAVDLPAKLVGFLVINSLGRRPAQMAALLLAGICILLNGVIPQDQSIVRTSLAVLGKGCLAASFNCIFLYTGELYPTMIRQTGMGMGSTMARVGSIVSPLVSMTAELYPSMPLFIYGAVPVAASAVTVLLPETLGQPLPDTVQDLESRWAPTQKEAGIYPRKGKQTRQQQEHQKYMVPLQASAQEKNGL
Procedure: The effects of pyrethroids on activity of ABC and SLC transporters were determined through measuring cellular accumulation or retention of fluorescent or radiolabeled reference substrates for transporters, in the presence or absence of reference inhibitors, as previously described [41].
The total incubation volume with substrates was 200 μL/well. […] An aliquot of cell lysate (5 μL) was then taken for determining cellular protein content by the Bradford method [44].
Intracellular concentrations of reference substrates were initially expressed as fluorescence arbitrary units (for fluorescent dye substrates) or as moles (for radiolabeled substrates) and normalized to cellular protein content, determined by the Bradford method [44]. They were finally used for calculating percentage of transporter activity, according to the following equations [41, 45]: %ABCtransporter activity=([Substrateref inh]-[Substratepyrethroid])×100/([Substrateref inh]-[Substratecontrol]) (1) %SLC transporter activity=([Substratepyrethroid]-[Substratref inh])×100/([Substratecontrol]-[Substrateref inh]) (2) with [Substratepyrethroid] = cellular concentration of reference substrate in the presence of pyrethroid, [Substrateref inh] = cellular concentration of reference substrate in the presence of reference inhibitor and [Substratecontrol] = cellular concentration of reference substrate in control cells not exposed to pyrethroid or reference inhibitor.

P-gp [4] = details: ref [26], [27]; cited from earlier work
OCT1 [5] = target: T1, OCT1; test: Trans-stimulation assay of TEA uptake in OCT1-transfected HEK293 cells; format: cell-based; details: pre-loading 60 min with 100 μM pyrethroid or 2 mM unlabeled TEA; HEK-OCT1 cells
Procedure: Trans-stimulation assays were performed as previously described. Briefly, OCT1-transfected HEK293 cells were first preloaded with 2 mM unlabeled TEA or 100 μM pyrethroid for 60 min at 37°c in the transport assay medium described above. After washing twice with PBS, cells were next re-incubated in transport assay medium containing 29 μM [1-^14C]-TEA for 5 min at 37°C. After washing twice with PBS, cells were lysed in distilled water and intracellular accumulation of [1-^14C]-TEA was then determined by scintillation counting.
Intracellular accumulation of TEA was then determined by scintillation counting. […] After washing, cells were next re-incubated with 29 μM [1-^14C]-TEA for 5 min at 37°C. Intracellular accumulation of [1-^14C]-TEA was then determined by scintillation counting.

[6] = HEK-OCT2 cells, pH 7.4, probe rhodamine 123

Chain of P-gp (Homo sapiens, UniProt P08183) (P08183 whole entry): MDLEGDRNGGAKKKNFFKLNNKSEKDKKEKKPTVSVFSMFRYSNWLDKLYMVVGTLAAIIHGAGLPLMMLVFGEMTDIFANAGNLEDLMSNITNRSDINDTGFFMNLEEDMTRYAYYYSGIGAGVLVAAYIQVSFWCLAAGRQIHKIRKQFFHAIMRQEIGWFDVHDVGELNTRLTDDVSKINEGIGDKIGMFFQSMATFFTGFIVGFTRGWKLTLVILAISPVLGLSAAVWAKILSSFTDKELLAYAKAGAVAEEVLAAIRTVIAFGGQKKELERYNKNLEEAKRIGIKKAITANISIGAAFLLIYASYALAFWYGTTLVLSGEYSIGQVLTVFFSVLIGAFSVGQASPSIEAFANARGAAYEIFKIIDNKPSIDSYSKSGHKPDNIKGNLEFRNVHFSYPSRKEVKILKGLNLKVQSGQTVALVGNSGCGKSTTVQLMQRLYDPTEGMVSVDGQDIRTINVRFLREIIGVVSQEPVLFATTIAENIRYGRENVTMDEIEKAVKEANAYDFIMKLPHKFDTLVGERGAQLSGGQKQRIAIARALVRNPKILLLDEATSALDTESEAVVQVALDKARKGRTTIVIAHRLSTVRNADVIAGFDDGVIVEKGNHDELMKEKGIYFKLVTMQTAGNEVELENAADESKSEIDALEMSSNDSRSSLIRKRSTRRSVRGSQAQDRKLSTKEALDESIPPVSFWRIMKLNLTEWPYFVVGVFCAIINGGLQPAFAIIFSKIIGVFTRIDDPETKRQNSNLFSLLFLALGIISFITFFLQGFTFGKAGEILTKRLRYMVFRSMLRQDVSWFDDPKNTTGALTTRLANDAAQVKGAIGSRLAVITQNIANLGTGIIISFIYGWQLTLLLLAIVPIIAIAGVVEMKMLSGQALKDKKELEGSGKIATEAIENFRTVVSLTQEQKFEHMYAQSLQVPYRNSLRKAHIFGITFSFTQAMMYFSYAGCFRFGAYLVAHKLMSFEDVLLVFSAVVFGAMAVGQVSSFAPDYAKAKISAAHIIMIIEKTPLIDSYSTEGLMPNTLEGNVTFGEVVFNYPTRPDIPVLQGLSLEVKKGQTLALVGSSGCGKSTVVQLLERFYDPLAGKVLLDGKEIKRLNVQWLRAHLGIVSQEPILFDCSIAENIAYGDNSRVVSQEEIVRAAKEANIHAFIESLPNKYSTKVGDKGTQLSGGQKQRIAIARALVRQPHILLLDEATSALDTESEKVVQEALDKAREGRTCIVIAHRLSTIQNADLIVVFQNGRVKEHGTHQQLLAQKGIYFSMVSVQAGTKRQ

Q: Which “effect on OCT1 activity” value (OCT1 [1]) does the source give for `CC1(C)[C@H](C(=O)OCc2cccc(Oc3ccccc3)c2)[C@@H]1C=C(Cl)Cl` [cis-permethrin] here?
A: failed to significantly alter

Q: Which results are given for `CC1(C)C(C=C(Cl)Cl)C1C(=O)OC(C#N)c1cccc(Oc2ccccc2)c1` (centres unmarked) [cypermethrin]?
A: blood concentration [2]: < 5 μg/L and < 12.8 nM; effect on P-gp activity (P-gp [3]): did not alter

Q: Which blood concentration [2] does the source give for `CC1(C)C(C=C(Cl)Cl)C1C(=O)OC(C#N)c1ccc(F)c(Oc2ccccc2)c1` (centres unmarked) [cyfluthrin] here?
A: < 5 μg/L and < 12.8 nM

Q: Which results are given for `CC(C)[C@@H](Nc1ccc(C(F)(F)F)cc1Cl)C(=O)OC(C#N)c1cccc(Oc2ccccc2)c1` (some centres unmarked) [τ-fluvalinate]?
A: inhibition at 100 μM (OAT3): 15.6%; inhibition at 100 μM (OCT2; pH 7.4): ~25%; effect on OCT1 activity (OCT1 [1]): failed to significantly alter; inhibition at 100 μM (OAT1): 42.8%

Q: Which “effect on P-gp activity or ATPase activity” value (P-gp [4]) does the source give for `CC(C)[C@H](Nc1ccc(C(F)(F)F)cc1Cl)C(=O)OC(C#N)c1cccc(Oc2ccccc2)c1` (some centres unmarked) [fluvalinate] here?
A: inhibit

Q: What about the “effect on P-gp activity” value (P-gp [3]) of the same compound?
A: did not alter

Q: What does the source list for `CC1(C)[C@H](C=C(Cl)Cl)[C@H]1C(=O)OCc1cccc(Oc2ccccc2)c1` [trans-permethrin]?
A: inhibition at 100 μM (OCT2; [6]): ~25%; inhibition at 100 μM (OCT1 [1]; pH 7.4): 30.1 to 48.8%

Q: For `CC1(C)[C@H](C(=O)O[C@H](C#N)c2cccc(Oc3ccccc3)c2)[C@@H]1/C=C(\Cl)C(F)(F)F` (racemic) [λ-cyhalothrin], which inhibition at 100 μM (OCT1 [1]; pH 7.4) is on record?
A: 30.1 to 48.8%

Q: Which inhibition at 100 μM (OCT1 [1]; pH 7.4) does the source give for `CC1(C)C(C(=O)OC(C#N)c2cccc(Oc3ccccc3)c2)C1(C)C` (centres unmarked) [fenpropathrin] here?
A: 30.1 to 48.8%

Q: For `Cc1c(F)c(F)c(COC(=O)[C@@H]2[C@H](/C=C(\Cl)C(F)(F)F)C2(C)C)c(F)c1F` (racemic) [tefluthrin], which inhibition at 100 μM (OCT2; pH 7.4) is on record?
A: ~25%

Q: And the inhibition at 100 μM (OCT1 [1]; pH 7.4)?
A: 30.1 to 48.8%

Q: With `Cc1c(COC(=O)[C@@H]2[C@H](/C=C(\Cl)C(F)(F)F)C2(C)C)cccc1-c1ccccc1` (racemic) [bifenthrin] as the compound, how does the “effect on OCT1 activity” value (OCT1 [1]) read?
A: failed to significantly alter

Q: Which “effect of pre-loading on radiolabeled TEA uptake (trans-stimulation assay)” value (OCT1 [5]) does the source give for `CC[N+](CC)(CC)CC` [TEA, tetra-ethylammonium bromide, reference compound] here?
A: trans-stimulation

Q: For `CC1(C)[C@H](C=C(Cl)Cl)[C@H]1C(=O)O[C@@H](C#N)c1cccc(Oc2ccccc2)c1` [β-cypermethrin], which inhibition at 100 μM (OCT2; [6]) is on record?
A: ~25%

Q: And the inhibition at 100 μM (OCT1 [1]; HEK-OCT1 cells, pH 7.4, probe DAPI)?
A: 30.1%
